Source: patent publication US20040035690A1, “Method and apparatus for chemical and biochemical reactions using photo-generated reagents” (The Regents Of The University Of Michigan, priority 1998, published 2004)
Entries after “also recorded” stand apart in the source; their conditions may differ. No end group written: not given here. dns = not defined here

What was measured:
mouse MAb DO-1 = experiment: Oligopeptide immunoassay with MAb DO-1 and FITC-tagged secondary antibody; type: binding; conditions: hexapeptide microarray made with acid PGR, FITC-tagged rabbit anti-mouse IgG
Protocol: Solid substrates comprising oligopeptids were washed with PBS (phosphate-buffered saline, 25 mM NaH2PO4, 125 mM NaCl, pH 7.4), PBST (PBS, 0.2% (V/V) Tween 20), and PBS, respectively. Next, the solid substrates were then incubated with mouse MAb DO-1, which recognizes amino acid residue 20-25 of human tumor suppressor protein p53, in PBS at room temperature for 2 h. After washing with PBST and PBS, samples were treated with FITC-tagged secondary rabbit anti-mouse immunoglobulin (IgG) overnight at 4° C. Following washing with PBST and PBS, fluorescence of the solid substrate was measured.

[1] = Pb^2+ ion binding assay of oligopeptides on microarray (fluorescence); conditions: peptide microarray made with acid PGR; lead chloride in buffer
Protocol: (§1) 5-dimethylaminonaphthalene-1-sulfonyl chloride (dansyl chloride, dns) generated fluorescence was also performed by contacting the solid substrate with a mixture of dns (1.25 mmol) and triethylamine (0.125 mmol) in DMF for 4 h at room temperature. The fluorescence detection was done in the same manner as previously described for FAM with the exception that the excitation wavelength was 365 nm.
For the Pb^2+ ion assay, solid substrates comprising oligopeptides were washed with a buffer solution containing 100 mM HEPES (pH 7.1) and 10% methanol. Samples were then treated with 0.1 mM lead chloride in buffer overnight at room temperature. After washing with buffer solution and methanol the solid substrates were left to dry in an inert atmosphere in the dark.

[2] = As^3+ ion binding assay of oligopeptides on microarray (fluorescence); conditions: peptide microarray made with acid PGR; NaAsO2
Protocol: as §1
For the As^3+ ion assay, the assay was performed by the same procedure as the Pb^2+ assay but the buffer was 10 mM sodium acetate (pH 4.0) containing 100 mM NaCl and 0.1 mM sodium arsenite (NaAsO2) was the metal ion solution.

Substance | fluorescence labeling / fluorescence intensity on binding of MAb DO-1 (mouse MAb DO-1) | fluorescence labeling / fluorescence intensity on Pb^2+ binding [1] | further results
DSLGKL: hexapeptide analogue of SDLHKL on the microarray (DSLHKL; printed: Asp-Ser-Leu-His-Lys-Leu) | fluorescence intensity is not detected | – | –
H2N-Glu-Glu-Glu-Glu (EEEE; printed: Glu-Glu-Glu-Glu) [tetrapeptide analogue on the microarray] | – | increase is fluorescence is not observed | –
SDLHKL [hexapeptide, amino acid residue 20-25 of human p53 protein] | selective labeling | – | fluorescence labeling / fluorescence intensity on binding of MAb DO-1 (mouse MAb DO-1; listed as SDLHKL): fluorescence intensity is detected
SGLHKL [hexapeptide analogue of SDLHKL on the microarray] | fluorescence intensity is not detected | – | –
dns-Cys-Cys-Cys-Cys | – | increase is fluorescence is not observed | –
dns-Glu-Cys-Glu-Glu | – | significant increase in fluorescence intensity; also recorded: selective labeling | –
dns-Glu-Glu-Glu-Glu | – | – | fluorescence labeling / fluorescence intensity on As^3+ binding [2]: fluoresence intensity is greatest; also recorded: selective labeling
dns-Gly-Gly-Gly-Gly (dns-GGGG; reading uncertain; also: printed as dns-Gly-Gly-Gly-Gly) [das-Gly-Gly-Gly-Gly, dansyl-labeled tetrapeptide] | – | increase is fluorescence is not observed | –
